Source: patent US10507184B2, “Implantable Naltrexone tablets” (RUSAN PHARMA LIMITED, priority 2015, dated 2019)

Test: Drug solubility versus pH
Format: physicochemical
Settings: pH above 7.4
From the text: Media provides sink conditions for maximum release of the drug from pharmaceutical system as well as aids in solubilization of drug for release; therefore, proper selection of media can be important. Media of different pH was used for selection of the correct media for dissolution of the naltrexone implantable tablets. The following five dissolution media were used from pH ranging from 1.2 to 7.4. The pH above 7.4 was not used, as the drug solubility is reduced at pH above 7.4.

O=C1CC[C@@]2(O)[C@H]3Cc4ccc(O)c5c4[C@@]2(CCN3CC2CC2)[C@H]1O5 [Naltrexone, 17-(cyclopropylmethyl)-4,5α-epoxy-3,14-dihydroxymorphinan-6-one]
drug solubility: reduced
